Data as given in article PMC11530130, “Peripherally restricted PICK1 inhibitor mPD5 ameliorates pain behaviors in murine inflammatory and neuropathic pain models” (JCI Insight, 2024).
Where “and” joins values, the source holds several entries; their conditions need not be identical. Equal entries are not always repeated. Where two headings read alike, the source gives them in different places.

How the values were obtained:
[1] = tested on: mice, spared nerve injury (SNI) model; assay type: in vivo, mouse; conditions: for von Frey paw withdrawal threshold, ipsilateral paw (Fig 7F): SNI mice, 10 umol/kg, individual animals
Method: (§1) solution (0.05 mg/kg) injected s.c. 30 min before surgery (10 μL/g). For surgery, mice were anaesthetised with ketamine (100 mg/kg, i.p.) and xylazine (10 mg/kg, i.p.) (volume 10 µL/g) with 100 μL of 1% xylocaine solution infiltrated at the site of the incision. The distal trifurcation of the sciatic nerve was identified, and the tibial and common peroneal branches were ligated with polypropylene nonabsorbable 6-0 sutures (Ethicon) and 1 mm was cut out, leaving the sural branch intact. The wound was closed with sutures, and the animals were allowed to recover and returned to their cages. Two subcutaneous injections of buprenorphine (0.05 mg/kg) were performed with an 8 to 12 hours delay decreasing pain due to the surgery […]
The remaining SNI pain experiments were performed in-house using the following procedure.
SNI surgery was performed on the left hindleg of C57BL/6J male and female mice (Janvier, France) under 2% isoflurane anaesthesia. Skin on the lateral surface was incised between hip and knee followed by lengthwise division of the biceps femoris muscle leading to exposure of the three branches of the sciatic nerve. Sural branch was left intact, while the peroneal and tibial branches were ligated with a single surgical knot and axotomized distally of the ligation.
(§2) Wounds were closed with surgical glue or medical clips and animals were monitored daily for signs of stress or discomfort, but in all cases recovered uneventfully. […]
The skin wound was closed with two medical clips (Michel Suture Clips, 7.5x1.75 mm, Angthos, 12040-01). Post-surgical analgesia included s.c. injection of 5 mg/kg carprofen (Carprosan vet, 50 mg/mL mixed 1:25 in sterile ddH2O, Dechra, Le Vet Beheer B.V., Netherlands, Batch: 050520) right after surgery and the […]
following day. […]
The test battery of the CIBP model was carried out 45 or 90 min after morphine and mPD5 administration respectively to accommodate the peak efficacy […]
Mechanically evoked pain (von Frey test).
Unless otherwise specified, von Frey occurred as described in the following. Animals were habituated to the experimental room for a minimum of 60 min before initiation of the experiment. Mechanical paw withdrawal threshold (PWT) was determined by von Frey measurements of both hind paws. Von Frey filaments ranging from 0.04 to 2 g (g = gram- […]
Filaments in ascending order were applied to the frontocentral plantar surface of the hind paws.
Mice were placed in PVC plastic boxes (11.5 cm x 14 cm) on a wire mesh and allowed minimum 20 min habituation prior of experiment initiation. Each von Frey hair was applied five times with adequate resting periods between each application and number of withdrawals recorded. The withdrawal threshold was determined as the von Frey filament eliciting at least three positive trials out of the five applications in two consecutive filaments. A positive trial was defined as sudden paw withdrawal, flinching and/or paw licking induced by the filament.
For the CIBP model, two habituation sessions were performed on separated days with mice placed in the von Frey equipment for 1-1.5 hours in the presence of the experimenter on day one and random von Frey pocking with the 0.6 g filament on day two. Von Frey monofilaments (North Coast Touch Test, North Coast Medical, Inc.) with target forces of 0.04g, 0.07g, 0.16g, […]
down method” (PWT=10Xf+kδ) starting with the 0.6 g filament. Positive response was defined as; withdrawal, shaking or grooming of paw following a 2-3 second stimulation. In case, of unclear response, stimulus was repeated after 10-15 seconds.
For the STZ model, the mechanical threshold response of the injected mice was measured with […]
injection of test compounds on day 14, mechanical threshold was measured at 1 hour, 2 hours, 4 hours and 6 hours and again on day 15. […]
Thermally evoked pain (Hargreaves test).
A baseline Hargreaves test was performed on day 0 before inflammatory pain was induced as described in section 2.13. In the Hargreaves test, the mouse was placed in a container on a glass […]

[2] = tested on: mice, spared nerve injury (SNI) model; assay: SNI model, marble-burying test; assay type: in vivo, mouse
Method: as §1, §2
For the first experiment with sustained administration of mPD5 (Figure 7C), the mice underwent a baseline von Frey reading as described in the “Mechanically-evoked pain (von Frey).”-section and SNI surgery as described in “Induction of neuropathic pain (SNI model).”-section. […] At 4,5 hours after the 10 μmol/kg mPD5 injection paw withdrawal threshold was measured again followed by a s.c. injection of 2 μmol/kg mPD5 in all animals. […]

Q: Which “von Frey paw withdrawal threshold, ipsilateral paw (Fig 7F)” value (from here on “von Frey paw withdrawal threshold”) ([1]; time point 8) does the source give for `CCCCCCCCCCCCCC(=O)N(CCOCCOCCC(=O)N[C@@H](Cc1c[nH]cn1)C(=O)N[C@@H](Cc1c[nH]c2ccccc12)C(=O)N[C@@H](CC(C)C)C(=O)N[C@@H](CCCCN)C(=O)N[C@H](C(=O)O)C(C)C)CCOCCOCCC(=O)N[C@@H](Cc1c[nH]cn1)C(=O)N[C@@H](Cc1c[nH]c2ccccc12)C(=O)N[C@@H](CC(C)C)C(=O)N[C@@H](CCCCN)C(=O)N[C@H](C(=O)O)C(C)C` [mPD5, myristoyl-NPEG4-(HWLKV)2] here?
A: Its value is 0.16 (5×) and 0.4.

Q: And the “von Frey paw withdrawal threshold” value ([1]; time point 13)?
A: Its value is 0.16 (5×) and 0.07.

Q: And the “von Frey paw withdrawal threshold” value ([1]; time point BL (baseline))?
A: The value was 1 (2×) and 1.4 (4×).

Q: What about the “von Frey paw withdrawal threshold” value ([1]; time point D12 (before dosing)) of the same molecule?
A: The value was 0.16 (5×) and 0.07.

Q: What about the “effect on mechanical hypersensitivity (PWT)” value ([1]; SNI, single s.c. administration, 8 hours after injection) of the same molecule?
A: Its value is “no effect on mechanical hypersensitivity”.

Q: And the “marbles buried, individual mice” value ([2]; 1 hour after s.c. 10 μmol/kg)?
A: Its value is 6 and 7 and 9 and 8 and 3 and 1 and 5.

Q: And the “effect on SNI-induced decrease in marble burying” value ([2]; female mice, s.c. 10 μmol/kg, to the level of the naive mice)?
A: Its value is “reverted significantly”.
